Results from patent US20210220489A1, “AMYGDALAR NEURAL ENSEMBLE THAT ENCODES THE UNPL[…] PAIN” (The Board of Trustees of the Leland Stanford Junior …, priority 2020, published 2021).

Assays:
noci-TRAP^hM4 mice = test: Reflexive and affective-motivational pain behaviors after chemogenetic inhibition of the BLA nociceptive ensemble; type: in vivo; conditions: CNO 10 mg/kg; mechanical and thermal noxious stimuli
Experimental: We habituated mice to a first testing room (room-A) for three consecutive days. Execution of all TRAP procedures occurred in Room-A. During these habituation days, no nociceptive stimuli were delivered, and no baseline thresholds were measured (i.e., mice were naïve to pain experience before the TRAP procedure). In room-A, we placed individual mice within red plastic cylinders (10.16-cm D), with a red lid, on a raised perforated, flat metal platform (60.96-cm H). […] This stimulus frequency was selected to closely match the protocols used in the microendoscope imaging experiments in which significant Ca^2+ transients were reliably detected in BLA Camk2a+ neurons. […]
To evaluate mechanical reflexive sensitivity, we used a logarithmically increasing set of 8 von Frey filaments (Stoelting), ranging in gram force from 0.07- to 6.0-g (93). […] Using the Up-Down statistical method, the 50% withdrawal mechanical threshold scores were calculated for each mouse and then averaged across the experimental groups. The response frequency was calculated as the number of positive responses out of 10 stimulations, delivered at 30-s intervals. […]

[1] = system: neuropathic TRAP^hM4 mice; test: Neuropathic (spared nerve injury) reflexive and affective-motivational pain behaviors; type: in vivo; conditions: day 42 postinjury
Description: To induce a chronic pain state, we used a modified version of the Spared Nerve Injury (SNI) model of neuropathic pain, as previously described (70). This model entails surgical section of two of the sciatic nerve branches (common peroneal and tibial branches) while sparing the third (sural branch). […] To perform this peripheral nerve injury procedure, anesthesia was induced and maintained throughout surgery with isoflurane (4% induction, 1.5% maintenance in oxygen). The left hind leg was shaved and wiped clean with alcohol and betadine. We made a 1-cm incision in the skin of the mid-dorsal thigh, approximately where the sciatic nerve trifurcates. […] Mice were then returned to their home cage and closely monitored over the following three days for well-being.
We habituated mice inside individual red plastic cylinders (10.16-cm D) on a raised flat, perforated metal platform (60.96-cm H) for 3 days prior to the start of behavioral sensory testing. After basal thermal and mechanical thresholds were measured, mice underwent a peripheral nerve injury surgery (Spared Nerve Injury, SNI; see “Chronic neuropathic pain model” above for details of the surgical procedure). […]

C[N+]1([O-])CCN(C2=Nc3cc(Cl)ccc3Nc3ccccc32)CC1 [CNO, clozapine-N-oxide]
attending and escape behaviors (noci-TRAP^hM4 mice): significantly reduced | reflexive hypersensitivity [1]: did not alter | neuropathic affective-motivational behaviors ([1]; regardless of stimulus intensity or modality): profound decrease
